The text below walks through data of PMC8262977, “A Dual-Specificity Inhibitor Targets Polyphosphate Kinase 1 and 2 Enzymes To Attenuate Virulence of Pseudomonas aeruginosa” (mBio, 2021).

For data set [1], the system named is P. aeruginosa PA14. The data set can be described thus: Bacterial growth kinetics (OD600). It counts as cell-based, Pseudomonas aeruginosa. From the text: FIG 3 Gallein phenocopies ppk deletion to attenuate P. aeruginosa swimming motility. (A) Representative image of swimming motility. (B) Quantification of the effects of gallein treatment and ppk gene deletion on swimming motility. (C) PA14 growth kinetics in the presence and absence of gallein in lysogeny broth (equivalent in composition to swim plates, minus the agar). ns, P > 0.05; *, P < 0.05; **, P < 0.01; ***, P < 0.001 (two-way ANOVA, Tukey’s multiple-comparison test, n = 3). All data points are the average from triplicates; error bars are ±standard deviation.
Supplementary file : FIG S4 Growth curves of P. aeruginosa WT and ΔpolyP in M63 biofilm medium (A) and liquid killing C. elegans assay medium (B). Gallein, or an equivalent volume of DMSO, was added to a 100 μM final concentration. OD600 monitored in triplicate cultures grown in 96-well plates at 37°C following colony inoculation. Error bars ± standard deviation. Download FIG S4, TIF file, 2.5 MB.

Data set [2] relates to P. aeruginosa PA14. The data set can be described thus: Swimming motility assay. The format is cell-based, Pseudomonas aeruginosa. As to the method:
Swimming motility plates consisted of 0.3% (wt/vol) Bacto agar (Becton Dickinson) and 2.5% (wt/vol) LB (Miller; Bioshop). Where indicated, 100 μM compound or an equivalent volume of DMSO was added to the agar prior to pouring. Plates were stab inoculated with a pipette tip dipped in overnight LB culture. Plates were incubated in sealed Tupperware at 30°C for 18 h, and swimming diameter was imaged and measured electronically.

The next data set concerns P. aeruginosa. Kind of data set: Bacterial CFU accumulation in the C. elegans gut. It counts as in vivo, Caenorhabditis elegans. The method, then:
(§1) Wild-type N2 C. elegans and the glp-4 conditionally sterile mutant strain were obtained from the Caenorhabditis Genetics Center. Liquid killing assays were conducted using glp-4 mutant worms as described previously ([35]), with the exception of survival being scored manually under a Zeiss light microscope instead of via Sytox Orange staining. Nematodes were scored as dead when they no longer moved when tapped. Solid killing was conducted using glp-4 as described previously ([34]), with the indicated concentration of inhibitor impregnated into the SK agar. Bacterial CFU accumulation in WT N2 worms was quantified as described previously ([56]). Briefly, age-synchronized embryos were spotted onto bacterium-seeded nematode growth medium (NGM) agar plates impregnated with inhibitor or DMSO. Embryos were incubated at 25°C for 3 days, after which point adult worms were harvested, washed, lysed, and enumerated for CFU.

A further data set concerns the target T1, P. aeruginosa PPK1 (Pseudomonas aeruginosa, UniProt P0DP44).
T1 construct: His tag (cleaved yes); made in house
The data set can be described thus: PPK1 polyP synthesis from ATP, toluidine blue detection. It counts as biochemical. The method, then:
Compounds were synthesized as outlined in Text S1. Compounds were dissolved in DMSO to make 10 mM stocks and added to a 200 μM final concentration for initial screening. The screen for PPK1 inhibitors was conducted by measuring polyP synthesis activity as described previously ([12]), with the exception of the polyP detection method (see Text S1). […] One-hundred-microliter reaction mixtures were incubated at 37°C for 30 min, after which time 50-μl aliquots were withdrawn and added to 1,000 μl of 6-mg/liter toluidine blue dissolved in 40 mM acetic acid to quench the reaction and quantify polyP ([27]). The A630/530 nm ratio was then recorded, and the values obtained were corrected by subtracting the corresponding blanks (all ingredients except enzyme). The amount of polyP synthesized was calculated using a standard curve (Fig. S1A). Any compounds showing 50% or greater reduction in activity relative to the DMSO control were subjected to further IC50 analysis.
All IC50 and kinetic assay mixtures contained equimolar amounts (275 nM) of PPK to ensure valid comparison between different enzymes. PolyP synthesis activity (for PPK1 and PPK2B) was assayed using the reaction buffer and conditions described above. ATP concentration was varied as indicated for kinetic experiments. Curves were fit using GraphPad Prism V9.

The next data set has as its system C. elegans. Kind of data set: Toxicity toward C. elegans (OP50 + gallein curves). The format is in vivo, Caenorhabditis elegans. The note with it: 100 μM. As to the method: as §1, with “We tested both liquid killing (LK) and solid-phase slow killing (SK) models of infection, as these two assays are reliant upon distinct mechanisms of P. aeruginosa pathogenesis ([34], [35]). […]. Wild-type” for “Wild-type”

For data set [3], the system named is P. aeruginosa PA14. Kind of data set: Pyoverdine quantification (absorbance at 403 nm). It counts as cell-based, Pseudomonas aeruginosa. As to the method:
Fifty-milliliter P. aeruginosa cultures in 2.5% (wt/vol) LB (Miller; Bioshop) were grown to stationary phase in 125-ml Erlenmeyer flasks with 180-rpm shaking at 37°C for 18 h. Cultures were centrifuged at 18,000 rpm for 30 min to clarify the supernatant, which was then filter sterilized. Pyoverdine was quantified spectrophotometrically at 403 nm as described previously ([55]). Pyocyanin was extracted via chloroform and treated with HCl to yield a red product that was quantified at 520 nm ([55]). To account for any colorimetric interference by inhibitors, cell-free blank readings were subtracted from each sample.

[4] abbreviates: WT: DMSO control vs 100 µM gallein.
Where [5] appears, read: Δppk1, 2a, 2b, 2c: DMSO control vs 100 µM gallein.
Setting [6] is: Δppk1: DMSO control vs 100 µM gallein.
The mark [7] stands for this setting: Δppk2a, 2b, 2c: DMSO control vs 100 µM gallein.

T1 sequence (P0DP44 whole entry): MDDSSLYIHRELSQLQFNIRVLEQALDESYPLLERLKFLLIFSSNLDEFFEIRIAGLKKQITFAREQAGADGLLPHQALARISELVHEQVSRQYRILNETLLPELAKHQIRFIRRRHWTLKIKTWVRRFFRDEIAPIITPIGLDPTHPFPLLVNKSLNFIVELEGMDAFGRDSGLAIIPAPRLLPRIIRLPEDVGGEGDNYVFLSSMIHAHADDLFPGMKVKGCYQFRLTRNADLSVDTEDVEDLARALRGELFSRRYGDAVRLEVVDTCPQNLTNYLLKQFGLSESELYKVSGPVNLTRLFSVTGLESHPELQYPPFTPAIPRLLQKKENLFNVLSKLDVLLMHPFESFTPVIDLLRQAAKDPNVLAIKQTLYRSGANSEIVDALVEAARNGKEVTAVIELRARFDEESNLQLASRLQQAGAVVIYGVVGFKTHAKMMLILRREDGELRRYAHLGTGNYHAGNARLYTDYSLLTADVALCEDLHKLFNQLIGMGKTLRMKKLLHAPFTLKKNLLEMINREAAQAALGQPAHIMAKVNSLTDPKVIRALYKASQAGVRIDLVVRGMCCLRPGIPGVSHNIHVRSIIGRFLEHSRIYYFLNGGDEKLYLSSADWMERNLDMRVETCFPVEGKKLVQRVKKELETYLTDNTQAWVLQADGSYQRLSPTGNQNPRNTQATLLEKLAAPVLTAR

On to `O=C1OC2(c3ccccc31)c1ccc(O)c(O)c1Oc1c2ccc(O)c1O` [RT4 (gallein), gallein], for which the growth kinetics result in the data set with P. aeruginosa PA14 [1] (LK conditions, 100 μM) is on record as “near-WT growth kinetics”. For the same compound, in the data set on P. aeruginosa PA14 [1] (biofilm assay conditions (M63 medium), 100 μM), the planktonic growth rate result was “did not affect the planktonic growth rate”. Also, in the data set on P. aeruginosa PA14 [1] (lysogeny broth), the bacterial growth kinetics result is listed as “did not affect bacterial growth kinetics”. The flagellum-based swimming motility entry with P. aeruginosa PA14 [2] (WT, 100 μM in agar) is given as “faithfully reproduced in WT P. aeruginosa the defect in flagellum-based swimming motility observed in the ΔpolyP strain”. In addition, the “swimming motility, Mean Diff.” value with P. aeruginosa PA14 [2] (setting [4]) is reported as 2; with P. aeruginosa PA14 [2] (setting [5]), -0.1; with P. aeruginosa PA14 [2] (setting [6]), 1.05; in the data set on P. aeruginosa PA14 [2] (setting [7]) it was 0.65. The “bacterial accumulation in the nematode gut” value was “reduced bacterial accumulation in the nematode gut” with P. aeruginosa (WT strain) and “further reduced bacterial accumulation” with P. aeruginosa (Δppk1 strain). For the same compound, the “C. elegans accumulation CFU, Mean Diff.” value with P. aeruginosa (setting [4]) is 783.3; in the data set with P. aeruginosa (∆polyP: DMSO control vs 100 µM gallein), -33.33; in the data set on P. aeruginosa (∆ppk1: DMSO control vs 100 µM gallein), 446.7. Also, in the data set on P. aeruginosa (ΔpolyP strain), the “bacterial accumulation in the nematode gut (CFU)” value is listed as “no additional decrease in CFU”. Besides, the “PPK1 activity in the absence of ATP regeneration” value on P. aeruginosa PPK1 (no creatine kinase/creatine phosphate, low-micromolar gallein) is “reduced both PPK1 activity rate and equilibrium polyP levels”. This compound registered an IC50 against P. aeruginosa PPK1 (polyP synthesis from ATP, 275 nM enzyme) of 17 ± 1 µM. Also, the “toxicity toward C. elegans” value in the data set on C. elegans is reported as “no gallein toxicity toward C. elegans was observed”. For the same compound, the pyoverdine production entry in the data set with P. aeruginosa PA14 [3] (WT, Δppk1 and Δppk2 strains) is “reproduced the marked pyoverdine and pyocyanin defects observed in the ΔpolyP strain”; with P. aeruginosa PA14 [3] (ΔpolyP strain), “no significant decrease of either toxin”. The “Pyoverdine, Mean Diff.” value in the data set on P. aeruginosa PA14 [3] (setting [4]) was 38.33; in the data set on P. aeruginosa PA14 [3] (setting [5]) it was -3.233; in the data set with P. aeruginosa PA14 [3] (setting [6]), 17.13; with P. aeruginosa PA14 [3] (setting [7]), 45.33.
